Test results from ChEMBL document CHEMBL3045199, “Synthesis of some (E)-6-[2-(furan-2-yl)ethenyl]-1,2,4-triazin-5-ones and their biological evaluation as antitumor agents” (2013).

Columns and labels:
Assay type in all cases: functional
[1] = tested on: NCI-H460; assay: Cytotoxicity against Homo sapiens (human) NCI-H460 cells after 48 hr by SRB assay; conditions: NCI-H460, 48 h
[2] = tested on: OVCAR-3; assay: Cytotoxicity against Homo sapiens (human) OVCAR3 cells after 48 hr by SRB assay; conditions: OVCAR-3, 48 h
[3] = tested on: KM12; assay: Cytotoxicity against Homo sapiens (human) KM12 cells after 48 hr by SRB assay; conditions: KM12, 48 h
[4] = tested on: MCF7; assay: Cytotoxicity against Homo sapiens (human) MCF7 cells after 48 hr by SRB assay; conditions: MCF7, 48 h
[5] = tested on: Hs-578T; assay: Cytotoxicity against Homo sapiens (human) Hs 578T cells after 48 hr by SRB assay
[6] = tested on: SF-539; assay: Cytotoxicity against Homo sapiens (human) SF539 cells after 48 hr by SRB assay; conditions: SF-539, 48 h
[7] = tested on: SF-295; assay: Cytotoxicity against Homo sapiens (human) SF295 cells after 48 hr by SRB assay; conditions: SF-295, 48 h
[8] = tested on: UACC-62; assay: Cytotoxicity against Homo sapiens (human) UACC62 cells after 48 hr by SRB assay; conditions: UACC-62, 48 h
[9] = tested on: IGROV-1; assay: Cytotoxicity against Homo sapiens (human) IGROV1 cells after 48 hr by SRB assay; conditions: IGROV-1, 48 h
[10] = tested on: NCI-H522; assay: Cytotoxicity against Homo sapiens (human) NCI-H522 cells after 48 hr by SRB assay; conditions: NCI-H522, 48 h
[11] = tested on: SK-MEL-5; assay: Cytotoxicity against Homo sapiens (human) SK-MEL-5 cells after 48 hr by SRB assay; conditions: SK-MEL-5, 48 h
[12] = tested on: SK-MEL-28; assay: Cytotoxicity against Homo sapiens (human) SK-MEL-28 cells after 48 hr by SRB assay; conditions: SK-MEL-28, 48 h
[13] = tested on: COLO 205; assay: Cytotoxicity against Homo sapiens (human) COLO205 cells after 48 hr by SRB assay; conditions: COLO 205, 48 h
[14] = tested on: SNB-75; assay: Cytotoxicity against Homo sapiens (human) SNB75 cells after 48 hr by SRB assay; conditions: SNB-75, 48 h
[15] = tested on: SF-268; assay: Cytotoxicity against Homo sapiens (human) SF268 cells after 48 hr by SRB assay; conditions: SF-268, 48 h
[16] = tested on: A549; assay: Cytotoxicity against Homo sapiens (human) A549 cells after 48 hr by SRB assay; conditions: A549, 48 h
[17] = tested on: HT-29; assay: Cytotoxicity against Homo sapiens (human) HT-29 cells after 48 hr by SRB assay; conditions: HT-29, 48 h
[18] = tested on: SNB-19; assay: Cytotoxicity against Homo sapiens (human) SNB19 cells after 48 hr by SRB assay; conditions: SNB-19, 48 h
[19] = tested on: K562; assay: Cytotoxicity against Homo sapiens (human) K562 cells after 48 hr by SRB assay; conditions: K562, 48 h
[20] = tested on: 786-0; assay: Cytotoxicity against Homo sapiens (human) 786-0 cells after 48 hr by SRB assay; conditions: 786-0, 48 h
[21] = tested on: CCRF-CEM; assay: Cytotoxicity against Homo sapiens (human) CCRF-CEM cells after 48 hr by SRB assay
[22] = tested on: EKVX; assay: Cytotoxicity against Homo sapiens (human) EKVX cells after 48 hr by SRB assay
[23] = Cytotoxicity against Homo sapiens (human) NCI-ADR-RES cells after 48 hr by SRB assay
[24] = tested on: UO-31; assay: Cytotoxicity against Homo sapiens (human) UO31 cells assessed as growth inhibition at 10 uM after 24 hr; conditions: UO-31, 24 h, read-out: GI
[25] = tested on: MDA-MB-435; assay: Cytotoxicity against Homo sapiens (human) MDA-MB-435 cells assessed as growth inhibition at 10 uM after 24 hr; conditions: MDA-MB-435, 24 h, read-out: GI
[26] = Cytotoxicity against Homo sapiens (human) non-small cell lung cancer cells after 48 hr by SRB assay; conditions: Cancer cell lines
[27] = tested on: 786-0; assay: Cytotoxicity against Homo sapiens (human) 786-0 cells assessed as growth inhibition at 10 uM after 24 hr; conditions: 786-0, 24 h, read-out: GI
[28] = tested on: UACC-62; assay: Cytotoxicity against Homo sapiens (human) UACC62 cells assessed as growth inhibition at 10 uM after 24 hr; conditions: UACC-62, 24 h, read-out: GI
[29] = tested on: TK-10; assay: Cytotoxicity against Homo sapiens (human) TK10 cells assessed as growth inhibition at 10 uM after 24 hr; conditions: TK-10, 24 h, read-out: GI
[30] = Cytotoxicity against Homo sapiens (human) breast cancer cells after 48 hr by SRB assay; conditions: Cancer cell lines
[31] = tested on: HT-29; assay: Cytotoxicity against Homo sapiens (human) HT-29 cells assessed as growth inhibition at 10 uM after 24 hr; conditions: HT-29, 24 h, read-out: GI
[32] = tested on: DU-145; assay: Cytotoxicity against Homo sapiens (human) DU145 cells assessed as growth inhibition at 10 uM after 24 hr; conditions: DU-145, 24 h, read-out: GI
[33] = tested on: MOLT-4; assay: Cytotoxicity against Homo sapiens (human) MOLT4 cells assessed as growth inhibition at 10 uM after 24 hr; conditions: MOLT-4, 24 h, read-out: GI
[34] = Cytotoxicity against Homo sapiens (human) prostate cancer cells after 48 hr by SRB assay; conditions: Cancer cell lines
[35] = tested on: A498; assay: Cytotoxicity against Homo sapiens (human) A498 cells assessed as growth inhibition at 10 uM after 24 hr; conditions: A498, 24 h, read-out: GI
[36] = read-out: LC50 (the source's name)

## O=c1[nH]cc(F)c(=O)[nH]1 [FLUOROURACIL]
[1]; read-out: pGI50 (converted)
  GI50: 1 µM
[2]; read-out: pGI50 (converted)
  GI50: 25.1 µM
[3]; read-out: pGI50 (converted)
  GI50: 10 µM
[4]; read-out: pGI50 (converted)
  GI50: 1.58 µM
[5]
  GI50: 251 µM
[6]; read-out: pGI50 (converted)
  GI50: 1.26 µM
[7]; read-out: pGI50 (converted)
  GI50: 50.1 µM
[8]; read-out: pGI50 (converted)
  GI50: 12.6 µM
[9]; read-out: pGI50 (converted)
  GI50: 12.6 µM
[10]; read-out: pGI50 (converted)
  GI50: 39.8 µM
[11]; read-out: pGI50 (converted)
  GI50: 12.6 µM
[12]; read-out: pGI50 (converted)
  GI50: 50.1 µM
[13]; read-out: pGI50 (converted)
  GI50: 6.31 µM
[14]; read-out: pGI50 (converted)
  GI50: 200 µM
[15]; read-out: pGI50 (converted)
  GI50: 50.1 µM
[16]; read-out: pGI50 (converted)
  GI50: 2 µM
[17]; read-out: pGI50 (converted)
  GI50: 6.31 µM
[18]; read-out: pGI50 (converted)
  GI50: 126 µM
[19]; read-out: pGI50 (converted)
  GI50: 20 µM
[20]; read-out: pGI50 (converted)
  GI50: 12.6 µM
[21]; read-out: pGI50 (converted)
  GI50: 31.6 µM
[22]; read-out: pGI50 (converted)
  GI50: 316 µM

## Nc1cc(-c2ccc(Cl)cc2)nn1-c1nc(=O)c(/C=C/c2ccco2)n[nH]1
[1]
  TGI: 13.9 µM
[1]; read-out: GI50
  GI50: 1.88 µM
[1]; [36]
  CC50: > 100 µM
[1]; read-out: pGI50 (converted)
  GI50: 1.86 µM
[23]
  GI50: 1.23 µM
  TGI: 8.11 µM
[23]; [36]
  CC50: 96.4 µM
[2]
  LC50 (50% lethal concentration): 31.8 µM
  TGI: 5.2 µM
[2]; read-out: GI50
  GI50: 1.48 µM
[2]; read-out: pGI50 (converted)
  GI50: 1.48 µM
[24]
  inhibition of growth at 10 µM: 96.1%
[3]
  TGI: 32 µM
[3]; read-out: GI50
  GI50: 3.19 µM
[3]; [36]
  CC50: > 100 µM
[3]; read-out: pGI50 (converted)
  GI50: 3.16 µM
[25]
  inhibition of growth at 10 µM: 37.2%
[26]
  GI50: 4.47 µM
  TGI: 41.1 µM
[26]; [36]
  CC50: > 100 µM
[4]
  LC50 (concentration killing 50% of cells): > 100 µM
  TGI: 50.4 µM
[4]; read-out: GI50
  GI50: 4.05 µM
[4]; read-out: pGI50 (converted)
  GI50: 4.07 µM
[5]
  GI50: 8.51 µM
[27]
  inhibition of growth at 10 µM: 53.1%
[28]
  inhibition of growth at 10 µM: 47.5%
[6]
  TGI: 26.1 µM
[6]; read-out: GI50
  GI50: 5.49 µM
[6]; [36]
  CC50: > 100 µM
[6]; read-out: pGI50 (converted)
  GI50: 5.5 µM
[7]
  TGI: 24.3 µM
[7]; read-out: GI50
  GI50: 1.58 µM
[7]; [36]
  CC50: > 100 µM
[7]; read-out: pGI50 (converted)
  GI50: 1.58 µM
[29]
  inhibition of growth at 10 µM: 48.8%
[30]
  GI50: 6.39 µM
  TGI: 48.1 µM
[30]; [36]
  CC50: > 100 µM
[8]
  LC50 (concentration killing 50% of cells): > 100 µM
  TGI: > 100 µM
[8]; read-out: GI50
  GI50: 5.07 µM
[8]; read-out: pGI50 (converted)
  GI50: 5.01 µM
[9]
  LC50 (concentration killing 50% of cells): > 100 µM
  TGI: 37.8 µM
[9]; read-out: GI50
  GI50: 4.89 µM
[9]; read-out: pGI50 (converted)
  GI50: 4.9 µM
[10]
  TGI: 36.8 µM
[10]; read-out: GI50
  GI50: 5.12 µM
[10]; [36]
  CC50: > 100 µM
[10]; read-out: pGI50 (converted)
  GI50: 5.13 µM
[11]
  TGI: 24.8 µM
[11]; read-out: GI50
  GI50: 3.83 µM
[11]; [36]
  CC50: > 100 µM
[11]; read-out: pGI50 (converted)
  GI50: 3.8 µM
[12]
  LC50: > 100 µM
  TGI: 82.3 µM
[12]; read-out: GI50
  GI50: 4.06 µM
[12]; read-out: pGI50 (converted)
  GI50: 4.07 µM
[13]
  TGI: 18.4 µM
[13]; read-out: GI50
  GI50: 3.44 µM
[13]; [36]
  CC50: > 100 µM
[13]; read-out: pGI50 (converted)
  GI50: 3.47 µM
[14]
  TGI: 37.2 µM
[14]; read-out: GI50
  GI50: 10.6 µM
[14]; [36]
  CC50: > 100 µM
[14]; read-out: pGI50 (converted)
  GI50: 10.7 µM
[15]
  TGI: 25.1 µM
[15]; read-out: GI50
  GI50: 1.99 µM
[15]; [36]
  CC50: > 100 µM
[15]; read-out: pGI50 (converted)
  GI50: 2 µM
[16]
  LC50: > 100 µM
  TGI: 34.2 µM
[16]; read-out: GI50
  GI50: 3.48 µM
[16]; read-out: pGI50 (converted)
  GI50: 3.47 µM
[17]
  TGI: > 100 µM
[17]; read-out: GI50
  GI50: 7.82 µM
[17]; [36]
  CC50: > 100 µM
[17]; read-out: pGI50 (converted)
  GI50: 7.76 µM
[31]
  inhibition of growth at 10 µM: 55.8%
[32]
  inhibition of growth at 10 µM: 36.7%
[18]
  TGI: 69.4 µM
[18]; read-out: GI50
  GI50: 5.81 µM
[18]; [36]
  CC50: > 100 µM
[18]; read-out: pGI50 (converted)
  GI50: 5.75 µM
[33]
  inhibition of growth at 10 µM: 55.6%
[34]
  GI50: 4.3 µM
  TGI: 40.1 µM
[34]; [36]
  CC50: 50 µM
[35]
  inhibition of growth at 10 µM: 66.2%
[19]
  LC50: > 100 µM
  TGI: 23 µM
[19]; read-out: GI50
  GI50: 2.79 µM
[19]; read-out: pGI50 (converted)
  GI50: 2.75 µM
[20]
  LC50: > 100 µM
  TGI: 21.2 µM
[20]; read-out: GI50
  GI50: 3.98 µM
[20]; read-out: pGI50 (converted)
  GI50: 3.98 µM
[21]
  LC50: > 100 µM
  TGI: 16.8 µM
[21]; read-out: GI50
  GI50: 2.88 µM
[21]; read-out: pGI50 (converted)
  GI50: 2.88 µM
[22]
  TGI: 31.1 µM
[22]; read-out: GI50
  GI50: 3.57 µM
[22]; [36]
  CC50: > 100 µM
[22]; read-out: pGI50 (converted)
  GI50: 3.55 µM
